Source: PMC2063170, “A phase I clinical and pharmacokinetic study of the new topoisomerase inhibitor GI147211 given as a 72-h continuous infusion” (British Journal of Cancer, 1998)
Several values for one entry are separate records, joined by “and”; a condition that tells them apart may be missing. Equal values may be shown once.

What was measured:
[1] = Phase I toxicity (Common Toxicity Criteria), 72-h continuous infusion; conditions: for MTD: 72-h infusion
Excerpt: (§1) Brrtish Joumal of Cancer(1998) 78(10). 1329-1336 @ 1998 Cancer Research Campaign A phase I clinical and pharmacokinetic study of the new topoisomerase inhibitor G1147211 given as a 72-h continuous infusion L Paz-Aresl*, R Kunkal 2, D DeMarial-3, J Cassidy' 4, M Alden3, P Beranek2, S Kaye', D Littlefield2, D Reilly3, S Depee2, P Wissel2, C Twelves' and P O'Dwyer3 CRC Department of Medical Oncology. University of Glasgow. Westem Infirmary Hospital. Glasgow Gll 6NT. UK; 2Glaxo Wellcome Research. Five Moore Drive. Research Triangle Park. NC 27709. USA; 'Fox Chase Cancer Center. 7701 Burholme Avenue. Philadelphia, PA 19111. USA: 4Thomas Jefferson University. Kimmel Cancer Institute. Bluemle Life Sciences Building. 233 S. 10th Street. Suite 502. Philadelphia. PA 19107. […] This study was designed to determine the maximum tolerated dose of Gl147211 as a 72-h infusion and to describe its pharmacokinetics and pharmacodynamics on this schedule. In a single-arm, rising-dose study in patients with advanced cancer, eight cohorts of three or more patients received 72-h infusions of G1147211 at doses ranging from 0.25 to 2.5 mg m-2 day-'. […] Whole-blood G1147211 lactone, total blood and total concentrations were measured during and over the 12 h following the infusion. […] Extensive phase 11 evaluation of this compound and further phase I trials evaluating more prolonged infusions are ongoing. Keywords: G1147211: GG211: camptothecin analogues: topoisomerase I inhibitor; phase I trial; pharmacokinetics: pharmacodynamics: continuous infusion GI 147211 (7-4 methyl piperazinomethilene)- 10.1 1 -ethylenedioxy - 20-(S camptothecin: Figure 1) is a totally synthetic analogue of camptothecin. a natural product isolated from Camptotheca acuminata (WAall et al. 1966: Emerson et al. 1995). […] The nuclear enzyvme DNA topoisomerase I. x hich relaxes DNA supercoils arising during, replication and gene tran- scription. has been identified as the specific targret of camptothecin (Hsianer and Liu. 1988: Wall and Wani. 1995).

refractory solid tumours = assay: Anti-tumour activity in phase I patients; assay type: in vivo
Excerpt: as §1

[2] = tested on: neutrophils and platelets; assay: Pharmacodynamics: sigmoid Emax (Hill) fit of % decrease in neutrophils or platelets vs lactone Css; assay type: in vivo, patients; conditions: sigmoid Emax model
Excerpt: (§2) Brrtish Joumal of Cancer(1998) 78(10). 1329-1336 @ 1998 Cancer Research Campaign A phase I clinical and pharmacokinetic study of the new topoisomerase inhibitor G1147211 given as a 72-h continuous infusion L Paz-Aresl*, R Kunkal 2, D DeMarial-3, J Cassidy' 4, M Alden3, P Beranek2, S Kaye', D Littlefield2, D Reilly3, S Depee2, P Wissel2, C Twelves' and P O'Dwyer3 CRC Department of Medical Oncology. University of Glasgow. Westem Infirmary Hospital. Glasgow Gll 6NT. UK; 2Glaxo Wellcome Research. Five Moore Drive. Research Triangle Park. NC 27709. USA; 'Fox Chase Cancer Center. 7701 Burholme Avenue. Philadelphia, PA 19111. USA: 4Thomas Jefferson University. Kimmel Cancer Institute. Bluemle Life Sciences Building. 233 S. 10th Street. Suite 502. Philadelphia. PA 19107. […] This study was designed to determine the maximum tolerated dose of Gl147211 as a 72-h infusion and to describe its pharmacokinetics and pharmacodynamics on this schedule. In a single-arm, rising-dose study in patients with advanced cancer, eight cohorts of three or more patients received 72-h infusions of G1147211 at doses ranging from 0.25 to 2.5 mg m-2 day-'. […] Whole-blood G1147211 lactone, total blood and total concentrations were measured during and over the 12 h following the infusion. […] Extensive phase 11 evaluation of this compound and further phase I trials evaluating more prolonged infusions are ongoing. […]

[3] = Initial stability studies of infusion solution; assay type: physicochemical; conditions: 5% dextrose (average pH 5)
Excerpt: as §2

melanoma cell line Lox = tested on: melanoma cell line Lox; design: method as in Emerson et al. 1995; conditions: ref Emerson et al. 1995; cited from earlier work
in vitro models = tested on: in vitro models; design: method as in Slichenmyer et al. 1993: Emerson et al. 1995; conditions: ref Slichenmyer et al. 1993: Emerson et al. 1995; cited from earlier work
[4] = tested on: colon (HT29 and SW480), breast (MX 1), ovarian (SKOV3), prostate (PC3) and lung (H460) carcinoma xenografts; design: method as in Emerson et al. 1986. 1993. 1994. 1995; conditions: nude mice; ref Emerson et al. 1986. 1993. 1994. 1995; cited from earlier work
[5] = heavy pretreatment, 1.2 mg m-2 day-1, n=3
[6] = heavy pretreatment, 1.5 mg m-2 day-1, n=4
[7] = heavy pretreatment, 2.0 mg m-2 day-1, n=1
[8] = minimal pretreatment, 1.5 mg m-2 day-1, n=5
[9] = minimal pretreatment, 1.75 mg m-2 day-1, n=3
[10] = minimal pretreatment, 2.0 mg m-2 day-1, n=10
[11] = minimal pretreatment, 2.5 mg m-2 day-1, n=2

## CC[C@@]1(O)C(=O)OCc2c1cc1n(c2=O)Cc2c-1nc1cc3c(cc1c2CN1CCN(C)CC1)OCCO3 [GI147211, 7-4 methyl piperazinomethilene)-10.1 1-ethylenedioxy - 20-(S camptothecin]
[1]; 0.25 mg m-2 day-1, n=6
  Anaemia, patients with worst CTC grade 1: 2 patients
  Thrombocytopenia, patients with worst CTC grade 1: 1 patients
[1]; 0.50 mg m-2 day-1, n=4
  Anaemia, patients with worst CTC grade 1: 1 patients
  Leucopenia, patients with worst CTC grade 1: 1 patients
[1]; 1.0 mg m-2 day-1, n=5
  Anaemia, patients with worst CTC grade 3: 1 patients
  Leucopenia, patients with worst CTC grade 2: 1 patients
  Leucopenia, patients with worst CTC grade 3: 1 patients
  Neutropenia, patients with worst CTC grade 1: 1 patients
  Thrombocytopenia, patients with worst CTC grade 1: 1 patients
  Thrombocytopenia, patients with worst CTC grade 4: 1 patients
[1]; 39 patients treated through central venous catheters
  Patients with central venous catheter associated infections requiring i.v. antibiotics: Five
[1]; all doses
  Patients complaining of headache while receiving the infusion: Twenty
[1]; all doses, 44 patients
  Patients with alopecia: 14 patients
  Patients with grade I or II nausea: Twenty-six
  Patients with grade I or II vomiting: 16 patients
  Patients with grade III vomiting: Three
  Patients with mild diarrhoea: seven
[1]; doses > 1.2 mg m-2 day-1
  Patients with grade II or III anaemia: 15 of 29
[1]; five patients infused through peripheral veins, doses < 1.0 mg m-2 day-1
  Phlebitis at the site of venepuncture: All of these patients developed phlebitis
[1]; heavily pretreated patients
  Recommended phase II dose: 1.2 mg m-2 day-1
  MTD: 1.2 mg m-2 day-1
[1]; heavily pretreated, 1.2 mg m-2 day-1, range 15-22
  Time of platelet nadir after the beginning of the infusion: 18 days
[1]; heavily pretreated, 1.2 mg m-2 day-1, range 31-93
  Platelet nadir, median count: 7.5e+10 L⁻¹
[1]; [5]
  Anaemia, patients with worst CTC grade 1: 1 patients
  Anaemia, patients with worst CTC grade 2: 2 patients
  Leucopenia, patients with worst CTC grade 1: 1 patients
  Leucopenia, patients with worst CTC grade 2: 1 patients
  Neutropenia, patients with worst CTC grade 1: 1 patients
  Thrombocytopenia, patients with worst CTC grade 1: 2 patients
  Thrombocytopenia, patients with worst CTC grade 3: 1 patients
[1]; [6]
  Anaemia, patients with worst CTC grade 1: 1 patients
  Anaemia, patients with worst CTC grade 2: 2 patients
  Leucopenia, patients with worst CTC grade 3: 2 patients
  Leucopenia, patients with worst CTC grade 4: 1 patients
  Neutropenia, patients with worst CTC grade 4: 3 patients
  Thrombocytopenia, patients with worst CTC grade 4: 3 patients
[1]; [7]
  Anaemia, patients with worst CTC grade 3: 1 patients
  Leucopenia, patients with worst CTC grade 4: 1 patients
  Neutropenia, patients with worst CTC grade 4: 1 patients
  Thrombocytopenia, patients with worst CTC grade 4: 1 patients
[1]; in contrast to irinotecan
  Induction of diarrhoea: does not induce diarrhoea
[1]; in vivo, iv
  Patients with grade IV neutropenia who developed fever: Five of the ten
[1]; [8]
  Anaemia, patients with worst CTC grade 2: 2 patients
  Anaemia, patients with worst CTC grade 3: 2 patients
  Leucopenia, patients with worst CTC grade 2: 2 patients
  Leucopenia, patients with worst CTC grade 4: 1 patients
  Neutropenia, patients with worst CTC grade 3: 2 patients
  Neutropenia, patients with worst CTC grade 4: 1 patients
  Thrombocytopenia, patients with worst CTC grade 1: 1 patients
  Thrombocytopenia, patients with worst CTC grade 2: 1 patients
  Thrombocytopenia, patients with worst CTC grade 3: 1 patients
  Thrombocytopenia, patients with worst CTC grade 4: 1 patients
[1]; [9]
  Anaemia, patients with worst CTC grade 1: 1 patients
  Anaemia, patients with worst CTC grade 3: 1 patients
  Leucopenia, patients with worst CTC grade 3: 1 patients
  Neutropenia, patients with worst CTC grade 3: 1 patients
[1]; [10]
  Anaemia, patients with worst CTC grade 1: 4 patients
  Anaemia, patients with worst CTC grade 2: 4 patients
  Anaemia, patients with worst CTC grade 3: 1 patients
  Leucopenia, patients with worst CTC grade 1: 4 patients
  Leucopenia, patients with worst CTC grade 2: 1 patients
  Leucopenia, patients with worst CTC grade 3: 1 patients
  Leucopenia, patients with worst CTC grade 4: 2 patients
  Neutropenia, patients with worst CTC grade 1: 2 patients
  Neutropenia, patients with worst CTC grade 2: 2 patients
  Neutropenia, patients with worst CTC grade 4: 3 patients
  Thrombocytopenia, patients with worst CTC grade 1: 2 patients
  Thrombocytopenia, patients with worst CTC grade 2: 1 patients
  Thrombocytopenia, patients with worst CTC grade 3: 4 patients
[1]; [11]
  Anaemia, patients with worst CTC grade 3: 1 patients
  Leucopenia, patients with worst CTC grade 3: 1 patients
  Leucopenia, patients with worst CTC grade 4: 1 patients
  Neutropenia, patients with worst CTC grade 4: 2 patients
  Thrombocytopenia, patients with worst CTC grade 3: 1 patients
  Thrombocytopenia, patients with worst CTC grade 4: 1 patients
[1]; minimally pretreated patients
  Dose at which neutropenia was dose limiting: 2.0 mg m-2 day-1
  MTD: 2.0 mg m-2 day-1
[1]; minimally pretreated, 2.0 mg m-2 day-1, range 0.02-3.92
  Nadir neutrophil count, median value: 1.59e+09 L⁻¹
[1]; minimally pretreated, 2.0 mg m-2 day-1, range 7-219
  Platelet nadir, median value: 7.2e+10 L⁻¹
[1]; minimally pretreated, 2.0 mg m-2 day-1, range 8-20
  Day of platelet nadir: 15 days
[1]; minimally pretreated, 2.0 mg m-2 day-1, range 10-22
  Time of lowest nadir neutrophil count, median: 16.5 days
[1]; more heavily pretreated patients
  Dose at which neutropenia and thrombocytopenia were limiting: 1.5 mg m-2 day-1
[1]; peripheral vein infusions
  Time to recovery of phlebitis: 7 to 24 days
[1]; range 1-14
  Median duration of grade IV neutropenia episodes: 5 days
[1]; range 1-10 days
  Median duration of grade III or IV thrombocytopenia: 4 days
[1]; untreated/minimally pretreated patients
  Recommended phase II dose: 1.75 mg m-2 day-1
Refractory solid tumours; 44 patients
  Number of minor responses: two
  Number of partial responses: Three
Refractory solid tumours; individual patients (breast, ovarian, colorectal cancer)
  Duration of partial response: 8 weeks and 30 weeks and ≥ 34 weeks
Refractory solid tumours; patient with colorectal cancer
  Decrease in hepatic lesions: 44%
Refractory solid tumours; patient with hepatoma
  Decrease in hepatic lesions: 36%
[2]
  EC50, half-maximal concentration (lactone Css) for % decrease in neutrophils (ANC): 0.75 ng/mL and 0.750 ng/mL
  EC50, half-maximal concentration (lactone Css) for % decrease in platelets: 1.141 ng/mL
[3]
  Stability as a concentrate or as a more dilute solution: stable
Melanoma cell line Lox
  50% growth inhibition concentration: 0.592 ng/mL
In vitro models
  Activity relative to topotecan: 2-5 times more active
[4]
  Anti-tumour activity in xenografts: confirmed the anti-tumour actixitv
